Measurements reported in patent US20100210568A1, “T[…] HORMONE FOR […] APPLICATIONS” (priority 2007, published 2010).

Tests used:
MRC-5 cells = assay: Cytotoxicity testing in MRC-5 cells (CellTiter 96); type: cell-based, human; conditions: 6 days incubation
Procedure: (§1) Cells were split twic a week 1:2.
(§2) For cytotxicity testing, MRC-5 cells were seeded at 2,500 cells/well in 96 well plates using growth medium. […] The following day, peptide was added and tested in duplicates. After a 6 days incubation period, cell viability was measured using CellTiter 96 Solution (Promega). Plates were incubated for additional 4 hours at 37° C.

HCMV strain AD169 = assay: HCMV plaque reduction assay in MRC-5 cells; type: cell-based
Description: as §1
Ganciclovir was used as positive control.

CEM-SS cells = assay: Cytotoxicity (MTS cell viability) in the HIV-1 assay; conditions: test peptide 10 micrograms per ml, MTS
HIV-1IIIB = assay: HIV-1 antiviral assay (CPE reduction, MTS) in CEM-SS cells; type: cell-based; conditions: for antiviral activity of positive control compounds (in words): HIV-1 assay validity; for % CPE reduction in HIV-1 infected CEM-SS cells: test peptide 10 micrograms per ml, 6 days post-infection, MTS
HepG2-2.2.15 cells = assay: Cytotoxicity (dye uptake cell viability) in the HBV assay; type: cell-based; conditions: % cell control
[1] = tested on: Interferon-γ (IFN-γ), spleen cells; assay: Th1/Th2 cytokine profiling assay: IFN-γ; type: cell-based, Balb/c mice; conditions: peptide 10 micrograms per ml; Ovalbumin restimulation 10 micrograms/ml; 72 hours
Streptococcus pneumoniae = Streptococcus pneumoniae assay; type: cell-based; conditions: peptide 10 micrograms per ml, visual reading of growth
[2] = tested on: Primary Human endothelial cells (HUVEC); assay: Endothelial cell migration assay; type: cell-based; conditions: peptide 10 micrograms per ml; 22 hours
[3] = tested on: Human Peripheral Blood Mononuclear Cells (PBMC), B cell proliferation; assay: B cell proliferation assay (SAC plus Interleukin-2, 3H-thymidine); type: cell-based; conditions: peptide 10 micrograms per ml; 3 days plus 12 hours 3H-thymidine
[4] = Cytotoxicity testing in MRC-5 cells (CellTiter 96); type: cell-based, human; conditions: human, MRC-5 cells (embryonal lung fibroblasts), 6 days incubation, read-out: % Cell Viability
Procedure: as §1, §2

MRSA = conditions: peptide 10 micrograms per ml, visual reading of growth
[5] = tested on: Interleukin-4 (IL-4), spleen cells; assay: Th1/Th2 cytokine profiling assay: IL-4; type: cell-based, Balb/c mice; conditions: peptide 10 micrograms per ml; Ovalbumin restimulation 10 micrograms/ml; 72 hours
[6] = Cytotoxicity (MTS cell viability) in the HIV-1 assay; conditions: human, CEM-SS cells
[7] = tested on: cyclic AMP generation in human peripheral blood mononuclear cells (PBMC); assay: cAMP induction assay (ELISA); type: cell-based; conditions: 10 min at 37° C.; forskolin 50 micrograms per ml as positive control
Procedure: The cAMP kit was used as an immunoassay for the quantitative determination of cyclic AMP generation in human peripheral blood mononuclear cells (PBMC). PBMC were placed in 96-well microtitier plates (50 microliters of cells at 4×10^6/ml) and 50 microliters of medium alone (background control), forskolin (cAMP positive control; 50 micrograms per ml), or test peptide were added. Plates were mixed and incubated for 10 min at 37° C. and the cells were lysed by the addition of 50 microliters of 3% perchloric acid. NaOH was added to neutralize the samples. Plates were centrifuged for 15 min at 2500 rpm and the supernatants removed. The supernatants (diluted 2-fold in assay buffer) were then assayed for the levels of cAMP by ELISA.

A549 cells [8] = assay: Apoptosis induction assay (Annexin-5); type: cell-based, human; conditions: peptide 10 micrograms per ml, 24 hours
Pseudomonas aeruginosa = Pseudomonas aeruginosa assay; type: cell-based; conditions: peptide 10 micrograms per ml, visual reading of growth
HUVEC = assay: Endothelial tube formation assay; type: cell-based, human; conditions: peptide 10 micrograms per ml; 20 hours
Description: Positive control was vehicle only. […] Raw data were expressed as average tubule lenghs in pixels±standard deviation.

A549 cells [9] = assay: Apoptosis prevention assay (C2 ceramide, Annexin-5); type: cell-based, human; conditions: peptide 10 micrograms per ml; 30 min pretreatment, then C2 ceramide
[10] = tested on: Tumor Necrosis Factor-α (TNF-α), spleen cells; assay: Th1/Th2 cytokine profiling assay: TNF-α; type: cell-based, Balb/c mice; conditions: peptide 10 micrograms per ml; Ovalbumin restimulation 10 micrograms/ml; 72 hours
[11] = tested on: Interleukin-2 (IL-2), spleen cells; assay: Th1/Th2 cytokine profiling assay: IL-2; type: cell-based, Balb/c mice; conditions: peptide 10 micrograms per ml; Ovalbumin restimulation 10 micrograms/ml; 72 hours
[12] = Cytotoxicity (dye uptake cell viability) in the HBV assay; type: cell-based; conditions: human, HepG2-2.2.15 cells, % cell control
[13] = tested on: TNF alpha production in PBMC-derived macrophages; assay: TNF alpha production assay (LPS-stimulated macrophages, ELISA); type: cell-based, human; conditions: peptide 10 micrograms per ml, 30 min; lipopolysaccharide 200 ng/ml; overnight
Description: Not stimulated macrophages served as negative background control.

A549 cells [14] = assay: Cell cycle assay (propidium iodide, FACS); type: cell-based, human; conditions: peptide 10 micrograms per ml, 24 hours
[15] = tested on: Human Peripheral Blood Mononuclear Cells (PBMC), T cell proliferation; assay: T cell proliferation assay (PHA, 3H-thymidine); type: cell-based; conditions: peptide 10 micrograms per ml; 3 days plus 12 hours 3H-thymidine
[16] = tested on: Interleukin-5 (IL-5), spleen cells; assay: Th1/Th2 cytokine profiling assay: IL-5; type: cell-based, Balb/c mice; conditions: peptide 10 micrograms per ml; Ovalbumin restimulation 10 micrograms/ml; 72 hours
[17] = tested on: hepatitis B virus (HBV) ayw strain in HepG2-2.2.15 cells; assay: HBV experimental assay system (secreted HBV DNA, TaqMan PCR); type: cell-based; conditions: test peptide 10 micrograms per ml; six days; HBV DNA in supernatant
RAW 264.7 cells = assay: Phagocytosis assay (Fluorescein-labeled Escherichia coli, flow cytometry); type: cell-based, mouse; conditions: peptide 10 micrograms per ml; 30 min preincubation, 60 min ingestion
Procedure: RAW 264.7 (Mouse leukaemic monocyte macrophage cell line) cells were obtained from ATCC and grown in RPMI 1640 medium containing 10% FBS. […] After the cells were incubated for additional 60 min at 37° C. and allowed to ingest the Fluorescein-labeled Escherichia coli bacteria, cells were fixed with 1% paraformaldehyde. The samples were then analyzed by flow cytometry to determine the amount of phagocytosis as a function of brightness (the greater the phagocytic activity, the more fluorescence in the macrophage population). Data are reported as % positive and the mean fluorescence intensity (MFI) of positively stained cells.

## Nc1nc(O)c2ncn(COC(CO)CO)c2n1 [Ganciclovir, reference compound]
MRC-5 cells
  % Cell viability: 100%
HCMV strain AD169; HCMV assay validity
  antiviral activity of positive control compound (in words): expected levels of antiviral activity

## Cc1cn([C@H]2C[C@H](N=[N+]=[N-])[C@@H](CO)O2)c(=O)[nH]c1=O [AZT]
CEM-SS cells
  % Cell viability: 97%
HIV-1IIIB
  antiviral activity of positive control compounds (in words): expected levels of antiviral activity
  % CPE reduction in HIV-1 infected CEM-SS cells: 99%

## CC(C)(C)NC(=O)[C@@H]1CN(Cc2cccnc2)CCN1C[C@@H](O)C[C@@H](Cc1ccccc1)C(=O)N[C@H]1c2ccccc2C[C@H]1O [Indinavir]
CEM-SS cells
  % Cell viability: 93%
HIV-1IIIB
  antiviral activity of positive control compounds (in words): expected levels of antiviral activity

## Nc1ccn([C@@H]2CS[C@H](CO)O2)c(=O)n1 [Compound 3TC, Lamivudine, reference compound]
HepG2-2.2.15 cells
  % Cell viability: 95.8%

## NC(=O)[C@@H]1CCCN1C(=O)[C@H](Cc1cnc[nH]1)NC(=O)[C@@H]1CCC(=O)N1 [TRH, Pyr-His-Pro-NH2]
[1]
  IFNγ spleen cells; TH1 response (% of control): 102.0 % of control
Streptococcus pneumoniae
  % inhibition: 0.0%
[2]
  % inhibition of migration: −12%
[3]
  % of SAC/IL2 induced control: 106.0%
[4]
  viability at 144 h: 100%
MRSA
  % inhibition: 0.0%
[5]
  IL-4 spleen cells; TH2 response (% of control): 106.2 % of control
[6]
  viability at 10 micrograms per ml: 94.6%
[7]
  % of Forskolin (positive control) induced cAMP formation: 0.0%
A549 cells [8]
  % of induction: 0.7%
Pseudomonas aeruginosa
  % inhibition: 0.0%
HUVEC
  % inhibition of tube formation: 7%
A549 cells [9]
  % prevention of ceramide induced apoptosis: 17.2%
[10]
  TNF-a spleen cells; TH1 response (% of control): 110.7 % of control
[11]
  IL-2 spleen cells (% of control): 0.0 % of control
[12]
  viability at 144 h, 10 micrograms per ml: 87.4%
HCMV strain AD169; peptide 10 micrograms per ml, 7-10 days, MRC-5 cells
  % plaque reduction: 0.0%
[13]
  % of LPS induction: 106.7%
A549 cells [14]
  Cell cycle analysis G0/G1: 58.1
  Cell cycle analysis G2/M: 10.7
  Cell cycle analysis S: 31.3
[15]
  % of PHA induced Control: 98.6%
HIV-1IIIB
  % CPE reduction in HIV-1 infected CEM-SS cells: 0.0%
[16]
  IL-5 spleen cells; TH2 response (% of control): 67.5 % of control
[17]
  % inhibition of HBV replication in HEP G2 cells: 3.3%
RAW 264.7 cells
  % of control phagocytosis: 131.4%
